In series [1] the test system is In Vitro Vascular Smooth Muscle of Rabbits. In words: Relaxant effect on in vitro rabbit vascular smooth muscle contraction induced by adrenaline (AD). To be noted: for EC50: Oryctolagus cuniculus, relaxation of rabbit aortic rings contracted by AD (10^−5 mol/L); for relaxant effect against AD contraction (in words): rabbit vascular smooth muscle, AD 10^−5 mol/L. An excerpt:
Krebs-Henseleit (K—H) physiological solution: NaCl 6.92 (concentration units), KCl 0.35, MgSO4 0.29, KH2PO4 0.16, CaCl2 0.28, NaHCO3 2.1, glucose 2.0 (g/L), pH 7.2.
Preparation of compound II-1 to II-87 solutions: Weigh a certain quality compound samples and dilute to concentrations (10^−10˜10^−3 mol/L) with distilled water, standby.
(§1) Cut the chest open quickly after stunning, strip out the descending aorta, then after removing the surrounding connective tissue and adipose tissue (if performed serotonin receptor antagonist experiments, endothelial cells should be removed using a smooth stainless steel bars), cut the vessels into 3-5 mm vascular ring, then pass the steel hook through the blood vessel ring, with one end is fixed to the vent hook and the other end connected to the tension transducer, then place the specimens into bath tube containing 20 mL of nutrient solution, and record tension change by tension transducer. Maintain tube temperature at 37±0.5° C., and pass bubbles (95% O2+5% CO2) into the solution as a speed of 1-2 bubbles/minute. Place an initial load of 1.5 g on the rings, and change nutrient every 20 minutes, then balance for 2 hours and start test after baseline readings are stabilized.
After tension readings are stabilized, record a certain length of tension curve, and add spasmogens agent AD (10^−5 mol/L) to induce contraction; if a maximum contract is achieved, wash the specimens thoroughly, and change K—H solution every 20 minutes, and then balance for 60 minutes; after baseline readings are stabilized, induce contract with spasmogens agent again. When the maximum contract in the later induction is consistent with the former induction, add compound II-1 to II-34 solutions (1×10^−10 to 1×10^−3 mol/L), II-35 to II-87 solutions (1×10^−8-1×10^−3 mol/L), and record the curves. Draw a dose-response curve using maximum relaxation response as 100%, relaxation percentage as ordinate and negative logarithms of the each concentration as abscissa.

Series [2] deals with In-Vitro Vascular Smooth Muscle of Rabbits. The experiment in a line: Relaxant effect on in vitro rabbit vascular smooth muscle contraction induced by hyperkalemia solution. The settings on record: for EC50: Oryctolagus cuniculus, relaxation of rabbit aortic rings contracted by hyperkalemia solution (K+ 60 mmol/L); for relaxant effect against hyperkalemia solution contraction (in words): rabbit vascular smooth muscle.

Series [3] in a line: Acute toxicity test, simplified probability unit method. To be noted: both sexes, mouse, in vivo; oral administration, Kunming mice.
In series [4] the test system is Ca^2+ channel. The experiment in a line: Antagonism of CaCl2 cumulative contraction of rabbit aorta, pA2. The settings on record: CaCl2 cumulative contraction after Ca-free hyperkalemia depolarization.
Text: Calcium-free K—H solution: Remove CaCl2 from K—H solution, add an equal number of moles of KCl, and add EDTA^−2Na^+ 0.1 mmol/L, while the other components remain unchanged.
Calcium-free hyperkalemia solution: Remove CaCl2 from hyperkalemia solution, add an equal number of moles of KCl, and add EDTA^−2Na^+ 0.1 mmol/L, while the other components remain unchanged.
as §1
After the tension is stabilized, wash the specimen three times and incubate with Ca-free K—H solution for 40 minutes; depolarize with Ca-free hyperkalemia solution for 20 minutes, and then add CaCl2 (10^−6-10^−2 mol/L) to the tube until a maximum response is achieved, and then record the curve. Then wash with K—H solution repeatedly, and replace with fresh K—H solution every 20 minutes; after balancing for 60 minutes and the baseline values are stabilized, wash the specimen again three times, and incubate with Ca-free K—H solution for 40 minutes; depolarize with Ca-free hyperkalemia solution for 20 minutes, and then add compound II-36 (3×10^−6 mol/L) to the tube, and incubate for 20 minutes; then add CaCl2 (10^−6-10^−2 mol/L) until a maximum response is achieved, and then record the curve. Mark CaCl2 contraction as ordinate using maximum response as 100% base. […] PA2 value of compound II-36 is 5.61±0.04 against CaCl2 contraction effect on rabbit aorta.
After the tension is stabilized, wash the specimen three times and incubate with Ca-free K—H solution for 40 minutes; depolarize with Ca-free hyperkalemia solution for 20 minutes, and then add CaCl2 (10^−6-10^−2 mol/L) to the tube until a maximum response is achieved, and then record the curve. […]

The subject of series [5] is Kunming mice. The experiment in a line: Bone marrow micronucleus test. To be noted: of 1000 polychromatic erythrocytes; oral, four days, test on the 5th day; II-36 120 mg/kg/day, cyclophosphamide 60 mg/kg/day. The procedure: After four days of continuous administration, perform bone marrow micronucleus test on the 5th day.
Positive contro, Cyclophosphamide 60 mg/kg/day; negative control, saline solution 0.1 ml/10 g/day. After four days of continuous administration, perform bone marrow micronucleus test on the 5th day.
The mice were sacrificed by cervical dislocation, and quickly stripped out of the femur and sternum;
blood and muscles were removed, epiphysis was cleaned; then sternum bone marrow was transfer with a hemostat squeeze onto clean slides with drops of calf serum or wash the femoral the marrow with fetal calf serum directly onto clean slides; after mixing, adjust slides well; then put the adjusted and aired slide into a staining jar filled with methanol, and allow to fix for 15 minutes; and then take it out and place in air until dry out; then, use freshly prepared Giemsa application solution (one sample of Giemsa stock solution and nine samples of phosphate buffer pH 6.8), stained for 10 minutes to wash away slide dye with small stream of water, and then observe under a microscope after it is dried.

Series [6] relates to α1 receptors. In words: Antagonism of α receptor agonist (noradrenaline / phenylephrine) cumulative contraction of rabbit aorta, pA2.
Text: as §1
After the tension is stabilized, record a certain length of the curve, and add NA (10^−8-10^−4 mol/L) to the tube until a maximum response is achieved, and then record the curve. Then wash the specimen with K—H solution repeatedly, balance for 1 h, add compound II-36 (3×10^−7 mol/L), and 20 minutes later, add NA following a same procedure. Mark NA contraction as ordinate using maximum response as 100% base. […] The larger the PA2 value, the stronger the antagonist effect. It is calculated based on the values of the attached figures by software.
After the tension is stabilized, record a certain length of the curve, and add NA (10^−8-10^−4 mol/L) to the tube until a maximum response is achieved, and then record the curve. Then wash the specimens repeatedly with K—H solution, and refresh K—H solution every 20 minutes, and balance for 60 minutes to allow baseline values are stabilized; then add doxazosin (10^−7 mol/L) and after 15 minutes, add NA in the same way (10^−8-6×10^−5 mol/L). Mark NA contraction as ordinate using maximum response as 100% base. […] The PA2 value of positive control doxazosin is 7.52±0.04 against NA contraction of rabbit aorta.
After the tension is stabilized, record a certain length of the curve, and add NA (3×10^−7-6×10^−5 mol/L) to the tube until a maximum response is achieved, and then record the curve. Then wash the specimen with K—H solution repeatedly, balance for 1 h, add compound II-65 (3×10^−6 mol/L), and 20 minutes later, add NA (3×10^−7-3×10^−4 mol/L) following a same procedure. Mark NA contraction as ordinate using maximum response as 100% base. […] PA2 value of compound II-65 is 6.02±0.13 against NA contraction effect on rabbit aorta.
After above procedures, wash the specimen repeatedly with K—H solution, balance for 1 hour, add doxazosin (10^−7 mol/L), and add NA in the same way after 15 minutes. Mark NA contraction as ordinate using maximum response as 100% base. […] The PA2 value of positive control doxazosin is 7.16±0.24 against NA contraction of rabbit aorta.
After the tension is stabilized, record a certain length of the curve, and add Phenylephrine (10^−6-6×10^−3 mol/L) to the tube until a maximum response is achieved, and then record the curve. Then wash the specimen with K—H solution repeatedly, balance for 1 h, add compound II-68 (3×10^−8 mol/L), and 20 minutes later, add Phenylephrine following a same procedure. Mark Phenylephrine contraction as ordinate using maximum response as 100% base. […] PA2 value of compound II-68 is 8.45±0.03 against Phenylephrine contraction effect on rabbit aorta.

Each structure is given as a SMILES string. Values joined by “and” are separate entries in the source; they are usually repeats but may differ in a detail not shown here. Equal entries are not always repeated. Structures can show the parent of a compound that is named as a salt.

What is called EC50 is the concentration giving half of the maximal effect. Consider `Clc1cccc(N2CCN(CCCCn3cnc4ccccc43)CC2)c1Cl` [Compound II-37, 1-(4-(4-(2,3-dichlorophenyl)piperazin-1-yl)butyl)-1H-benzimidazole], for which, in series [1], the half-maximal effective concentration (EC50) was 0.977 µM and the “relaxant effect against AD contraction (in words)” value was “most significant relaxation effects”. In addition, in series [2], the EC50 was 3.24 µM and the “relaxant effect against hyperkalemia solution contraction (in words)” value is given as “significant relaxant effect”.

In the case of `Clc1cccc(N2CCN(CCCCn3nnc4ccccc43)CC2)c1` [Compound II-63, 1-(4-(4-(3-chlorophenyl)piperazin-1-yl)butyl)-1H-benzotriazole], in series [1], the midpoint of the response, the EC50, lay at 0.977 µM and the “relaxant effect against AD contraction (in words)” value was “most significant relaxation effects”. For the same compound, in series [2], the EC50 is 2.29 µM and the “relaxant effect against hyperkalemia solution contraction (in words)” value was “significant relaxant effect”.

Broadly, the LD50 is the dose expected to kill half of the subjects tested. Lower therefore signals a more toxic substance. Regarding `Clc1cccc(C2CCN(CCCCn3nnc4ccccc43)CC2)c1` [II-2, N-(4-(1H-benzotriazole-1-yl)butyl)-4-(3-chlorophenyl)piperidine], the EC50 in series [2] is 15.1 µM. In addition, the 50% lethal dose (LD50) in series [3] came to 362 mg/kg.

Consider `c1ccc2c(c1)ncn2CCCCN1CCN(c2n[nH]c3ccccc23)CC1` [II-54, 1-(4-(4-(3-benzopyrazolyl)piperazin-1-yl)butyl)-1H-benzimidazole], for which the EC50 in series [1] was 58.9 µM; in series [2] it was 117 µM.

Regarding `Clc1cccc(N2CCN(CCCn3nnc4ccccc43)CC2)c1Cl` [II-72, 1-(3-(4-(2,3-dichlorophenyl)piperazin-1-yl)propyl)-1H-benzotriazole], the concentration giving a half-maximal response (EC50) in series [1] is 1.91 µM; in series [2], 4.68 µM.

In the case of `Cc1cccc(N2CCN(CCCn3nnc4ccccc43)CC2)c1` [II-73, 1-(3-(4-(3-methylphenyl)piperazin-1-yl)propyl)-1H-benzotriazole], the half-maximal effective concentration (EC50) in series [1] is 3.39 µM; in series [2] it was 6.03 µM.

In the case of `Fc1ccc2c(N3CCN(CCCOn4nnc5ccccc54)CC3)noc2c1` [II-86], the values for the EC50 in series [1] and in series [2] were 13.2 µM and 26.3 µM, respectively.

In the case of `CCOC(=O)C1=C(COCCN)NC(C)=C(C(=O)OC)C1c1ccccc1Cl` (stereo not shown) [amlodipine, Amlodipine Besylate, reference compound], the “PA2 value against CaCl2 contraction” value in series [4] is 6.99±0.05 and 7.15±0.288.

On to `O=P1(N(CCCl)CCCl)NCCCO1` (stereo not shown) [cyclophosphamide, Cyclophosphamide, reference compound], for which the “polychromatic erythrocytes with micronucleus” value in series [5] is listed as 12 ‰.

`COc1cc2nc(N3CCN(C(=O)C4COc5ccccc5O4)CC3)nc(N)c2cc1OC` (stereo not shown) [doxazosin, Doxazosin Mesylate, reference compound]: the “PA2 value against Phenylephrine contraction” value in series [6] (Phenylephrine cumulative contraction) was 7.52±0.04. In series [6] (noradrenaline (NA) cumulative contraction), the “PA2 value against NA contraction” value was 7.52±0.04 and 7.16±0.24.

(Values after US9802929B2, “Benzo five-membered nitrogen heterocyclic piperidine or piperazine derivatives and preparation methods and pharmaceutical compositions thereof” (Shenyang Haiwang Biotechnology Co., Ltd., priority 2012, dated 2017).)
